According to US9834558B2, “Substituted bridged urea analogs as sirtuin modulators” (GLAXOSMITHKLINE LLC, priority 2013, dated 2017):
Counter-ions that a name gives are not always drawn. Like-named read-outs stand apart in the source and are kept apart here. Blank lines part the entries; values can stand above or below the compound they belong to.

Target: T1, SIRT1 (Homo sapiens, UniProt Q96EB6)
T1 sequence (Q96EB6 1-747): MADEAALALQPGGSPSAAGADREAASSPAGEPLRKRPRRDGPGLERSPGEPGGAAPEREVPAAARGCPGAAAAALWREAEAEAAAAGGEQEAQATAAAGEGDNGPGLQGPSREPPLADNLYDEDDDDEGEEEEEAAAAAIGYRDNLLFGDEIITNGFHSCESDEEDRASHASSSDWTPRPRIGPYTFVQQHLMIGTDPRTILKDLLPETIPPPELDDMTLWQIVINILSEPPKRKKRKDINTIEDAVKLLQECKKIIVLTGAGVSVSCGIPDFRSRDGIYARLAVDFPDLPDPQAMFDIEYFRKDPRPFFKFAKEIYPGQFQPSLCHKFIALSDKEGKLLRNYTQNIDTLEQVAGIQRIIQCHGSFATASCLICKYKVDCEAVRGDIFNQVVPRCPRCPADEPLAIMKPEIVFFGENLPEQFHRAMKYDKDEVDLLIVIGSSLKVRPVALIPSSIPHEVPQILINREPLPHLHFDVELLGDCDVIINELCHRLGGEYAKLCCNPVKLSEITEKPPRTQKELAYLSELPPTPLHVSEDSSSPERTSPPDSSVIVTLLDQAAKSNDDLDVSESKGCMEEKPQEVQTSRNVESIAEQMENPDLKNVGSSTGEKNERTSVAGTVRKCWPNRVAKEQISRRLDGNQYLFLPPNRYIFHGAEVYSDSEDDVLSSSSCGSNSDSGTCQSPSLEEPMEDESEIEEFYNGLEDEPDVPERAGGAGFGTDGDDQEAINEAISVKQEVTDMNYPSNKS
Assay: Trp mass spectrometry assay of SIRT1 activation
Assay type: biochemical
Conditions: for TRP Activity (EC1.5): EC1.5 = concentration that results in 150% activation of SIRT1
In short: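 Activation read-out: mass-spec measurement of O-acetyl-ADP-ribose or deacetylated Trp peptide versus compound-free controls, giving EC1.5 and Percent Maximum Activation. Reactions ran 25 min at 25 °C, pH 7.5, with 120 μM βNAD+, 0.5 μM acetylated p53-derived peptide and 10 nM His-tagged SIRT1.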

[1] = Trp peptide assay, maximum activity relative to control (100%), read-out: TRP MAX RESP (percent maximum fold activation)
[2] = Trp mass spectrometry assay, concentration of test compound giving 150% activation of SIRT1
[3] = Trp peptide substrate, concentration giving 150% activation of SIRT1
[4] = Trp mass spectrometry assay, EC1.5 = concentration of test compound that results in 150% activation of SIRT1
[5] = concentration giving 150% activation of SIRT1, Trp peptide substrate

TRP Activity (EC1.5) (Trp peptide assay): A (A (EC1.5<1 μM))
Emax [1]: > 150%
SMILES: Cc1cc(-c2ccc3c(n2)N(C(=O)Nc2cncc(F)n2)[C@H]2CCN3C2)ccn1 [(9S)-N-(6-fluoropyrazin-2-yl)-5-(2-methylpyridin-4-yl)-1,6,8-triazatricyclo[7.2.1.0 {2,7}]dodeca-2(7),3,5-triene-8-carboxamide]

Tryp AVG EC1.5 (μM) [2]: A (A (EC1.5<1 μM))
SMILES: O=C(Nc1ccncn1)N1c2nc(-c3cncc(C(F)(F)F)c3)ccc2N2CCC[C@H]1C2 [Example 393]

Tryp AVG EC1.5 (μM) [3]: B (B (EC1.5 1-25 μM))
SMILES: COc1cc(NC(=O)N2c3nc(-c4cccc(Cl)c4)ccc3N3CC[C@H]2C3)ncn1 [Example 104]

TRP Activity (EC1.5) (Trp peptide assay): B (B (EC1.5 1-25 μM))
Emax [1]: > 150%
SMILES: CN1CCN(c2ccc3c(n2)N(C(=O)Nc2cnccn2)[C@H]2CCN3C2)CC1 [(9S)-5-(4-methylpiperazin-1-yl)-N-(pyrazin-2-yl)-1,6,8-triazatricyclo[7.2.1.0 {2,7}]dodeca-2(7),3,5-triene-8-carboxamide]

Tryp AVG EC1.5 (μM) [3]: B (B (EC1.5 1-25 μM))
SMILES: COc1cc(NC(=O)N2c3nc(-c4cccc(Cl)c4)ccc3N3CC[C@H]2C3)nc(OC)n1 [Example 103]

Tryp AVG EC1.5 (μM) [4]: A (A (EC1.5<1 μM))
SMILES: O=C(Nc1cccnc1)N1c2nc(-c3cncc(C(F)(F)F)c3)ccc2N2CC[C@H]1C2 [Example 556]

Tryp AVG EC1.5 (μM) [5]: A (A (EC1.5<1 μM))
SMILES: O=C(Nc1cc(-c2cnco2)ccn1)N1c2nc(-c3cncc(F)c3)ccc2N2CC[C@H]1C2 [Example 727]

Tryp AVG EC1.5 (μM) [5]: B (B (EC1.5 1-25 μM))
SMILES: O=C(NCCCc1cccnc1)N1c2nc(-c3cccc(C(F)(F)F)c3)ccc2N2CC[C@H]1C2 [Example 674]

Tryp AVG EC1.5 (μM) [5]: B (B (EC1.5 1-25 μM))
SMILES: NCc1cccc(NC(=O)N2c3nc(-c4cccc(C(F)(F)F)c4)ccc3N3CC[C@H]2C3)c1 [Example 755]

Tryp AVG EC1.5 (μM) [4]: B (B (EC1.5 1-25 μM))
SMILES: Cc1nc(C)c(-c2ccc3c(n2)N(C(=O)Nc2cccnc2)[C@H]2CCN3C2)s1 [Example 495]

Tryp AVG EC1.5 (μM) [5]: B (B (EC1.5 1-25 μM))
SMILES: Cc1nc(NC(=O)N2c3nc(-c4cccc(Cl)c4)ccc3N3C[C@@H](O)[C@H]2C3)sc1C [Example 688]

TRP Activity (EC1.5) (Trp peptide assay): A (A (EC1.5<1 μM))
Emax [1]: > 150%
SMILES: O=C(Nc1cc(OC[C@H](O)CO)ccn1)N1c2nc(-c3cccc(C(F)(F)F)c3)ccc2N2CC[C@H]1C2 [(9S)-N-{4-[(2R)-2,3-dihydroxypropoxy]pyridin-2-yl}-5-[3-(trifluoromethyl)phenyl]-1,6,8-triazatricyclo[7.2.1.0 {2,7}]dodeca-2(7),3,5-triene-8-carboxamide]

Tryp AVG EC1.5 (μM) [2]: A (A (EC1.5<1 μM))
SMILES: CS(=O)(=O)c1cncc(-c2ccc3c(n2)N(C(=O)Nc2cccnn2)[C@H]2CCCN3C2)c1 [Example 380]

Tryp AVG EC1.5 (μM) [5]: A (A (EC1.5<1 μM))
Emax (percent maximum fold activation of SIRT1, Trp peptide substrate, read-out: Tryp % Fold Act): > 150%
SMILES: CC(C)(C)OC(=O)NCCCc1cc(NC(=O)N2c3nc(-c4cccc(C(F)(F)F)c4)ccc3N3CCC[C@H]2C3)cc(-c2cnco2)c1 [Example 754]

TRP Activity (EC1.5) (Trp peptide assay): B (B (EC1.5 1-25 μM))
Emax [1]: > 150%
SMILES: O=C(Nc1cnccn1)N1c2nc(N3CCOCC3)ccc2N2CC[C@H]1C2 [(9S)-5-(morpholin-4-yl)-N-(pyrazin-2-yl)-1,6,8-triazatricyclo[7.2.1.0 {2,7}]dodeca-2,4,6-triene-8-carboxamide]

TRP Activity (EC1.5) (Trp peptide assay): B (B (EC1.5 1-25 μM))
Emax [1]: > 150%
SMILES: C[C@@H]1CN(c2ccc3c(n2)N(C(=O)Nc2cnccn2)[C@H]2CCN3C2)C[C@H](C)O1 [(9S)-5-[(2R,6S)-2,6-dimethylmorpholin-4-yl]-N-(pyrazin-2-yl)-1,6,8-triazatricyclo[7.2.1.0 {2,7}]dodeca-2(7),3,5-triene-8-carboxamide]

TRP Activity (EC1.5) (Trp peptide assay): A (A (EC1.5<1 μM))
Emax [1]: > 150%
SMILES: CC1(C)CN(c2ccc3c(n2)N(C(=O)Nc2cnccn2)[C@H]2CCN3C2)CCO1 [(9S)-5-(2,2-dimethylmorpholin-4-yl)-N-(pyrazin-2-yl)-1,6,8-triazatricyclo[7.2.1.0 {2,7}]dodeca-2(7),3,5-triene-8-carboxamide]

Tryp AVG EC1.5 (μM) [5]: A (A (EC1.5<1 μM))
SMILES: Cc1cc(-c2ccc3c(n2)N(C(=O)Nc2cc(-c4cnco4)ccn2)[C@H]2CCN3C2)ccn1 [Example 746]

Tryp AVG EC1.5 (μM) [5]: A (A (EC1.5<1 μM))
SMILES: O=C(Nc1cccc(-c2cccnc2)c1)N1c2nc(-c3cccc(C(F)(F)F)c3)ccc2N2CC[C@H]1C2 [Example 660]

Tryp AVG EC1.5 (μM) [4]: B (B (EC1.5 1-25 μM))
SMILES: O=C(Nc1ccccn1)N1c2nc(-c3cncc(Cl)c3)ccc2N2CCC1CC2 [Example 551]

Tryp AVG EC1.5 (μM) [4]: B (B (EC1.5 1-25 μM))
SMILES: O=C(Nc1cccnc1)N1c2nc(-c3cc[nH]n3)ccc2N2CC[C@H]1C2 [Example 493]

Tryp AVG EC1.5 (μM) [2]: B (B (EC1.5 1-25 μM))
SMILES: COc1cc(NC(=O)N2c3nc(-c4ccnc(N5CCC(F)(F)C5)c4)ccc3N3CC[C@H]2C3)ncn1 [Example 390]

TRP Activity (EC1.5) (Trp peptide assay): B (B (EC1.5 1-25 μM))
Emax [1]: > 150%
SMILES: Cc1ncc(-c2ccc3c(n2)N(C(=O)Nc2cccnc2)[C@H]2CCN3C2)cc1F [(9S)-5-(5-fluoro-6-methylpyridin-3-yl)-N-(pyridin-3-yl)-1,6,8-triazatricyclo[7.2.1.0 {2,7}]dodeca-2(7),3,5-triene-8-carboxamide]

TRP Activity (EC1.5) (Trp peptide assay): B (B (EC1.5 1-25 μM))
Emax [1]: > 150%
SMILES: Cn1ccc(-c2ccc3c(n2)N(C(=O)Nc2cnccn2)[C@H]2CCN3C2)n1 [(9S)-5-(1-methyl-1H-pyrazol-3-yl)-N-(pyrazin-2-yl)-1,6,8-triazatricyclo[7.2.1.0 {2,7}]dodeca-2(7),3,5-triene-8-carboxamide]

TRP Activity (EC1.5) (Trp peptide assay): A (A (EC1.5<1 μM))
Emax [1]: > 150%
SMILES: O=C(Nc1cnccn1)N1c2cc(N3CCCC(C(F)(F)F)C3)ccc2N2CCC[C@H]1C2 (stereo partly shown)

Tryp AVG EC1.5 (μM) [4]: A (A (EC1.5<1 μM))
SMILES: O=C(Nc1cncc(Br)c1)N1c2nc(-c3cccc(C(F)(F)F)c3)ccc2N2CC[C@H]1C2 [Example 542]

TRP Activity (EC1.5) (Trp peptide assay): C (C (EC1.5>25 μM))
Emax [1]: < 150%
SMILES: Cc1cc(-c2ccc3c(n2)N(C(=O)NCCc2ccccn2)[C@H]2CCN3C2)ccn1 [(9S)-5-(2-methylpyridin-4-yl)-N-[2-(pyridin-2-yl)ethyl]-1,6,8-triazatricyclo[7.2.1.0 {2,7}]dodeca-2(7),3,5-triene-8-carboxamide hydrochloride]

Tryp AVG EC1.5 (μM) [5]: C (C (EC1.5>25 μM))
SMILES: O=C(Nc1ccccn1)N1c2cc(-c3cccc(C(F)(F)F)c3)ccc2N2CC[C@H]1C2 [Example 785]

Tryp AVG EC1.5 (μM) [5]: A (A (EC1.5<1 μM))
SMILES: Cc1cncc(NC(=O)N2c3nc(-c4cccc(C(F)(F)F)c4)ccc3N3C[C@@H](O)[C@H]2C3)c1 [Example 670]

TRP Activity (EC1.5) (Trp peptide assay): C (C (EC1.5>25 μM))
Emax [1]: < 150%
SMILES: C[C@@H]1CN(c2ccc3c(n2)N(C(=O)Nc2cnccn2)[C@H]2CCN3C2)CCN1 [(9S)-5-[(3R)-3-methylpiperazin-1-yl]-N-(pyrazin-2-yl)-1,6,8-triazatricyclo[7.2.1.0 {2,7}]dodeca-2,4,6-triene-8-carboxamide]

Tryp AVG EC1.5 (μM) [4]: A (A (EC1.5<1 μM))
SMILES: O=C(Nc1cnccn1)N1c2nc(-c3ccnc(N4CCC(F)(F)C4)c3)ccc2N2CC[C@H]1C2 [Example 423]

Tryp AVG EC1.5 (μM) [5]: A (A (EC1.5<1 μM))
SMILES: O=C(Nc1nncs1)N1c2nc(-c3cccc(C(F)(F)F)c3)ccc2N2CC[C@H]1C2 [Example 646]

Tryp AVG EC1.5 (μM) [4]: A (A (EC1.5<1 μM))
SMILES: Cc1cncc(-c2ccc3c(n2)N(C(=O)Nc2cccnc2)[C@H]2CCCN3C2)c1 [Example 515]

Tryp AVG EC1.5 (μM) [4]: A (A (EC1.5<1 μM))
Emax (Trp mass spectrometry assay, percent maximum fold activation of SIRT1, read-out: Tryp % Fold Act): > 150%
SMILES: O=C(CCCC[C@@H]1SC[C@@H]2NC(=O)N[C@@H]21)NCCCCCC(=O)NCc1cn(-c2cccc(NC(=O)N3c4nc(-c5cccc(C(F)(F)F)c5)ccc4N4CC[C@H]3C4)c2)nn1 [Example 607]

Tryp AVG EC1.5 (μM) [3]: A (A (EC1.5<1 μM))
SMILES: O=C(Nc1ccc2c(c1)OCCCO2)N1c2nc(-c3cccc(C(F)(F)F)c3)ccc2N2CC[C@H]1C2 [Example 95]

Tryp AVG EC1.5 (μM) [4]: B (B (EC1.5 1-25 μM))
SMILES: O=C(Nc1ccncn1)N1c2nc(-c3cccnc3)ccc2N2CCC[C@H]1C2 [Example 456]

Tryp AVG EC1.5 (μM) [5]: A (A (EC1.5<1 μM))
SMILES: O=C(Nc1cccc(-c2cnco2)c1)N1c2nc(-c3cccc(C(F)(F)F)c3)ccc2N2C[C@@H](O)[C@H]1C2 [Example 665]

TRP Activity (EC1.5) (Trp peptide assay): B (B (EC1.5 1-25 μM))
Emax [1]: > 150%
SMILES: O=C(c1ccc2c(n1)N(C(=O)Nc1ccccn1)[C@H]1CCN2C1)N1CCC(F)(F)C1 [(9S)-5-[(3,3-difluoropyrrolidin-1-yl)carbonyl]-N-(pyridin-2-yl)-1,6,8-triazatricyclo[7.2.1.0 {2,7}]dodeca-2(7),3,5-triene-8-carboxamide]
